Assay results from patent publication US20250346943A1, “DEGRADER COMPOUNDS OF QSOX1 mRNA” (UNIVERSITY OF FLORIDA RESEARCH FOUNDATION, INCORPORATED, priority 2022, published 2025).

What was measured:
[1] = system: SQSTM1 protein; assay: SQSTM1 protein abundance by Western blotting in MDA-MB-231 cells; assay type: cell-based, human; conditions: F1-Amide 20 μM, F1-RIBOTAC 10 μM, 48 h
Method: Measuring Protein Abundance by Western Blotting. MDA-MB-231 cells were seeded in 6-well plates at ˜50% confluency and treated with vehicle (DMSO) or compound as described above but without EU treatment. After 16 h, the compound-containing growth medium was removed and replaced with fresh medium containing compound (re-dosing). After an additional 32 h incubation, total protein was harvested (48 h total treatment time). The cells were then washed twice with cold 1×DPBS, and total protein was harvested by using Mammalian Protein Extraction Reagent (M-PER, Thermo Scientific) per the manufacturer's protocol. Protein concentration was quantified by using BCA Protein Assay Kit (Pierce), and the proteins were separated by using 10% SDS-polyacrylamide gel (20 μg protein per lane). After gel electrophoresis in 1× Running Buffer (50 mM MOPS, 50 mM Tris-base, pH 7.5, 1 mM EDTA, and 0.1% (w/v) SDS) at 120 V for 1 h, the proteins were transferred to a PVDF membrane (0.45 μm, Cytiva) at 300 mA for 1 h in 1× Transfer Buffer (25 mM Bicine, 25 mM Tris-base, pH 7.5, 1:4 MeOH:H2O). The membrane was blocked with 5% (w/v) non-fat dry milk in TBST (1×TBS containing 0.1% (v/v) Tween-20) for 1 h at room temperature. […] Expression levels of proteins were quantified based on band intensity by using ImageJ. […]

[2] = system: proteins of MDA-MB-231 cells (human proteome); assay: Proteomics analysis of proteins cross-linked in MDA-MB-231 cells; assay type: cell-based; conditions: of the 3,158 proteins detectable before pull-down
Method: Proteomic Sample Preparation and Analysis. MDA-MB-231 cells were seeded in 60 mm dishes and allowed to reach ˜80% confluency. The cells were then treated with […] of compound in growth medium and incubated for 16 h. Cells were washed with 1×DPBS and irradiated with UV light for 10 min. For each condition, two biological replicates were prepared, and each biological replicate was split into three technical replicates. […]
Pulled-down proteins were released from beads by resuspending in 6 M urea/1×PBS (0.5 mL) supplemented with 10 mM of TCEP at room temperature for 30 min. […] To the samples was added 1 volume of isopropanol containing 1% (v/v) trifluoroacetic acid, followed by a styrenedivinylbenzene reverse-phase sulfonate (SDB-RPS) StageTip 12 Peptides were resuspended in 0.1% (v/v) formic acid (FA) in water and analyzed using Proxeon EASY-nLC 1200 nano-UHPLC coupled to QExactive HF-X Quadrupole-Orbitrap mass spectrometer (Thermo Scientific). […]
The MS data were analyzed with MaxQuant13 (V1.6.1.0) and searched against the human proteome (Uniprot) and a common list of contaminants included in MaxQuant. […] The minimum peptide length was set to six amino acids and peptide re-quantification was enabled with the minimal number of peptides per protein set to 2. […]

Row | Compound | effect on SQSTM1 protein levels [1] | proteins selectively pulled-down (not pulled-down by the control probe) [2] [proteins]
1 | CCOC(=O)C1=C(Nc2ccccc2)S/C(=C\c2ccc(OCCOCCOCCOCCNC(=O)CCC(=O)N(C)[C@H]3CC[C@@H](c4ccc(Cl)c(Cl)c4)c4ccccc43)c(O)c2)C1=O [Compound F1-RIBOTAC] | Neither | –
2 | C#CCCC1(CCC(=O)N(C)[C@H]2CC[C@@H](c3ccc(Cl)c(Cl)c3)c3ccccc32)N=N1 [Compound F1] | – | 79
